The text below walks through data of patent US11459329B2, “Imidazopyridazine and imidazopyridine compounds and uses thereof” (Incyte Corporation, priority 2018, dated 2022).

In one test the target is ALK2 (aa 147-end) (Homo sapiens (Human), UniProt Q04771). The test is described as follows: ALK2 HTRF Assay.
ALK2 (aa 147-end), sequence (Q04771 147-509): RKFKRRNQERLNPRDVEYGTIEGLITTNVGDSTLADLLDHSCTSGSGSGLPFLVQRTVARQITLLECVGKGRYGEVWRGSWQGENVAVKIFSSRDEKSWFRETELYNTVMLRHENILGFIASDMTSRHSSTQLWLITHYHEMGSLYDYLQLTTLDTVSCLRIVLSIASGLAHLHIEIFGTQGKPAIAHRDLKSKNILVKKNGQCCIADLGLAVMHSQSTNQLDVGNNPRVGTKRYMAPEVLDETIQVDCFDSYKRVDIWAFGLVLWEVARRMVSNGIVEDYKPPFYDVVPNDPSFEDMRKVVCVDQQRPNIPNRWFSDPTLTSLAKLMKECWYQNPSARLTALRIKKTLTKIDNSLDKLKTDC
Conditions: not given
Type of test: biochemical. The procedure: The enzymatic assays were conducted in white 384-well polystyrene plates in a final volume of 8 μL. The inhibitors were serially diluted in DMSO and added to the plate wells prior to addition of the other reaction components. The assays were carried out at 25° C. in the assay buffer (50 mM HEPES, pH 7.0, 10% Glycerol, 0.01% Brij50, 10 mM MgCl2, 1 mM EGTA, 5 mM DTT, and 0.01% BSA), containing 50 nM LANCE Ultra ULight™-DNA Topoisomerase 2-alpha peptide (Perkin Elmer TRF0130), and 3 μM ATP. The final concentration of DMSO in the assay was 1% and the enzyme concentration was 0.5 nM for ALK2. […] […] IC50 determination was performed by fitting percent control activity versus the log of the inhibitor concentration using the IDBS XLFit and GraphPad Prism 5.0 software.
On the technique in general: Time-resolved FRET reads energy transfer from a long-lived donor to a nearby acceptor.
By IC50 is commonly meant the concentration needed to halve the response being measured. Regarding `Cc1nn2c(-c3ccnc4cc(C#N)ccc34)cnc2cc1-c1ccc(N2CCNCC2)cc1` [Example 30, 4-(6-methyl-7-(4-(piperazin-1-yl)phenyl)imidazo[1,2-b]pyridazin-3-yl)quinoline-7-carbonitrile], the 50% inhibitory concentration (IC50) was 5 to 100 nM.

Staying with this test, now noted: 3 μM ATP, 0.5 nM ALK2, 2 hr, 25° C.; read-out: ALK2 IC50.
In the case of `CNC(=O)c1ccc2c(-c3cnc4cc(-c5ccc(N6CCNCC6)cc5)c(C)nn34)ccnc2c1` [Example 16, N-methyl-4-(6-methyl-7-(4-(piperazin-1-yl)phenyl)imidazo[1,2-b]pyridazin-3-yl)quinoline-7-carboxamide], the IC50 is 1 to 5 nM.

In the case of `Cc1cnn(-c2ccc3c(-c4cnc5cc(-c6ccc(CN(C)C)cc6)c(C)nn45)ccnc3n2)n1` [Example 63, N,N-dimethyl-1-(4-(6-methyl-3-(7-(4-methyl-2H-1,2,3-triazol-2-yl)-1,8-naphthyridin-4-yl)imidazo[1,2-b]pyridazin-7-yl)phenyl)methanamine], the half-inhibitory concentration (IC50) is 1 to 5 nM.

On to `Cc1nn2c(-c3ccc(C#N)c4ncccc34)cnc2cc1-c1ccc(N2CCNCC2)cc1` [Example 28, 5-(6-methyl-7-(4-(piperazin-1-yl)phenyl)imidazo[1,2-b]pyridazin-3-yl)quinoline-8-carbonitrile], for which the half-maximal inhibitory concentration (IC50) fell in the range of 5 to 100 nM.

Regarding `Cc1nn2c(-c3ccnc4cc(-c5ccncc5)ccc34)cnc2cc1-c1ccc(N2CCN(C)CC2=O)cc1` [Example 12, 4-Methyl-1-(4-(6-methyl-3-(7-(pyridin-4-yl)quinolin-4-yl)imidazo[1,2-b]pyridazin-7-yl)phenyl)piperazin-2-one], the concentration for half-maximal inhibition (IC50) was 5 to 100 nM.

On to `Cc1nn2c(-c3ccnc4nc(-c5ccccn5)ccc34)cnc2cc1-c1cnn([C@H]2CC[C@H](O)CC2)c1` [Example 37, (1R,4R)-4-(4-(6-Methyl-3-(7-(pyridin-2-yl)-1,8-naphthyridin-4-yl)imidazo[1,2-b]pyridazin-7-yl)-1H-pyrazol-1-yl)cyclohexan-1-ol], for which the IC50 was less than 1 nM.

In the case of `Cc1nn2c(-c3ccnc4cc(Nc5cccnc5)ccc34)cnc2cc1-c1ccc(N2CCNCC2)cc1` [Example 22, 4-(6-methyl-7-(4-(piperazin-1-yl)phenyl)imidazo[1,2-b]pyridazin-3-yl)-N-(pyridin-3-yl)quinolin-7-amine], the half-inhibitory concentration (IC50) was less than 1 nM.

In the case of `Cc1cnn(-c2ccc3c(-c4cnc5cc(-c6ccc(CN7CCOCC7)cc6)c(C)nn45)ccnc3n2)n1` [Example 64, 4-(4-(6-Methyl-3-(7-(4-methyl-2H-1,2,3-triazol-2-yl)-1,8-naphthyridin-4-yl)imidazo[1,2-b]pyridazin-7-yl)benzyl)morpholine], the IC50 lay within 1 to 5 nM.

Consider `Cc1nn2c(-c3ccnc4nc(-c5cnccn5)ccc34)cnc2cc1-c1cnn([C@H]2CC[C@H](O)CC2)c1` [Example 41, (1R,4R)-4-(4-(6-Methyl-3-(7-(pyrazin-2-yl)-1,8-naphthyridin-4-yl)imidazo[1,2-b]pyridazin-7-yl)-1H-pyrazol-1-yl)cyclohexan-1-ol], for which the IC50 was 1 to 5 nM.

As for `CC(=O)N1CCN(c2ccc3c(-c4cnc5cc(-c6ccc(N7CCNCC7)cc6)c(C)nn45)ccnc3c2)CC1` [Example 23, 1-(4-(4-(6-methyl-7-(4-(piperazin-1-yl)phenyl)imidazo[1,2-b]pyridazin-3-yl)quinolin-7-yl)piperazin-1-yl)ethan-1-one], the half-inhibitory concentration (IC50) was in the range of 5 to 100 nM.

Take `CCn1cnc(-c2ccc3c(-c4cnc5cc(-c6ccc(CN7CCO[C@H](CO)C7)cc6)c(C)nn45)ccnc3n2)c1` [Example 59, (S)-(4-(4-(3-(7-(1-ethyl-1H-imidazol-4-yl)-1,8-naphthyridin-4-yl)-6-methylimidazo[1,2-b]pyridazin-7-yl)benzyl)morpholin-2-yl)methanol]: the concentration for half-maximal inhibition (IC50) fell in the range of 1 to 5 nM.

Regarding `CCn1cnc(-c2ccc3c(-c4cnc5cc(-c6ccc(CN7CCC(O)CC7)cc6)c(C)nn45)ccnc3n2)c1` [Example 71, 1-(4-(3-(7-(1-Ethyl-1H-imidazol-4-yl)-1,8-naphthyridin-4-yl)-6-methylimidazo[1,2-b]pyridazin-7-yl)benzyl)piperidin-4-ol], the 50% inhibitory concentration (IC50) was in the range of 1 to 5 nM.

The subject of a further test is ALK2 mutant DIPG cell.
Test: not given
The settings on record: ALK2 mutant DIPG cells; cited from earlier work.
On to `c1ccc2c(-c3cnn4cc(-c5ccc(N6CCNCC6)cc5)cnc34)ccnc2c1` [LDN-19318917], for which the “inhibition of ALK2 mutant DIPG cell viability” value is “significant inhibition”.
